PubChem BioAssay AID449765 (Vanderbilt High Throughput Screening Facility, 2010)

Target: Muscarinic acetylcholine receptor M4 (Homo sapiens) (UniProt P08173)
Assay: potentiation of EC20 ACh response at hM4 – cell-based, human M4, calcium flux, Millipore GPCR Profiler, dose response (AID 449765)
Conditions: M4-expressing cells, calcium flux fluorescence

Muscarinic acetylcholine receptor M4 (Homo sapiens), sequence (P08173 whole entry, looked up): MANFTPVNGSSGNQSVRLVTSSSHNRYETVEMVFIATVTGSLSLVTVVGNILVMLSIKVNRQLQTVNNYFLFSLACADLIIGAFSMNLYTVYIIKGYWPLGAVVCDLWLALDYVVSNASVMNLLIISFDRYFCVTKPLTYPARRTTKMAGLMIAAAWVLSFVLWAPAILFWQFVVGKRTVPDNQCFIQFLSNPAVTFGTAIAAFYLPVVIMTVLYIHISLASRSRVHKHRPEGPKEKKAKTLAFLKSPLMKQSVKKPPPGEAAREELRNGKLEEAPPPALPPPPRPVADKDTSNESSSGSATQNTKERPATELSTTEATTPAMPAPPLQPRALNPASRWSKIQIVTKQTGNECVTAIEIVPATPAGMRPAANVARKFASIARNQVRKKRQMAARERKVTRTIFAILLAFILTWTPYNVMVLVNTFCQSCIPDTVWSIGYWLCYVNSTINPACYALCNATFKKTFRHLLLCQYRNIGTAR

EC50 [nM] | SMILES
183 | Cc1cc(OCc2ccncc2)nc2sc(C(=O)NCc3cc(F)ccc3F)c(N)c12
100 | COc1ccc(CNC(=O)c2sc3nc(OCc4ccncc4)cc(C)c3c2N)cc1
95.3 | Cc1cc(OCc2ccncc2)nc2sc(C(=O)NCc3cccc(F)c3F)c(N)c12
192 | Cc1cc(OCCN2CCOCC2)nc2sc(C(=O)NC(C)(C)C)c(N)c12
